# Reference: patent US20250352520A1, “USE OF DEXPRAMIPEXOLE FOR THE TREATMENT OF EOSINOPHILIC COPD” (Areteia Therapeutics, Inc., priority 2024, published 2025)
# Like-named read-outs stand apart in the source and are kept apart here.
# Conditions: Week 16
# Method: Participants performed post-BD spirometry at specific visits as noted in the SOA.
# After completing the pre-BD spirometry, participants inhaled four puffs of albuterol/salbutamol (site sourced) metered dose inhaler (approximately 100 μg albuterol/salbutamol base per actuation), with each actuation 1 minute apart. Post-BD spirometry was assessed within 15 to 30 minutes after inhalation of albuterol/salbutamol.
# [1] = <50% AEC reduction at Week 16 (N = 4), 150 mg BID
# [2] = >=50% AEC reduction at Week 16 (N = 3), 150 mg BID
structure (smiles),measurement,setting,value
"CCCN[C@@H]1CCc2nc(N)sc2C1 [Dexpramipexole, (6R)-2-amino-4,5,6,7-tetrahydro-6-(propylamino)benzothiazole]","Post bronchodilator Peak Flow, Observed, Median",[1],324.5 L/min
same,"Post bronchodilator Peak Flow, Observed, Min",[1],146 L/min
same,"Post bronchodilator Peak Flow, Observed, Q1",[1],227 L/min
same,"Post bronchodilator Peak Flow, Observed, Q3",[1],425 L/min
same,"Post-BD FEV1 % change from baseline, Max",>=50% AEC reduction at Week 16,57%
same,"Post-BD FEV1 % change from baseline, Mean ± SD",>=50% AEC reduction at Week 16,16.6 ± 35.02%
same,"Post-BD FEV1 % change from baseline, Median",>=50% AEC reduction at Week 16,−1.1%
same,"Post-BD FEV1 % change from baseline, Min",>=50% AEC reduction at Week 16,−6%
same,"Post-BD FEV1 % change from baseline, Q1",>=50% AEC reduction at Week 16,−6%
same,"Post-BD FEV1 % change from baseline, Q3",>=50% AEC reduction at Week 16,57%
same,"Post-BD FEV1 Observed, Max",>=50% AEC reduction at Week 16,2150 mL
same,"Post-BD FEV1 Observed, Mean ± SD",>=50% AEC reduction at Week 16,1593.3 ± 616.95 mL
same,"Post-BD FEV1 Observed, Median",>=50% AEC reduction at Week 16,1700.0 mL
same,"Post-BD FEV1 Observed, Min",>=50% AEC reduction at Week 16,930 mL
same,"Post-BD FEV1 Observed, Q1",>=50% AEC reduction at Week 16,930 mL
same,"Post-BD FEV1 Observed, Q3",>=50% AEC reduction at Week 16,2150 mL
same,"Post-BD FEV1 change from baseline, Max",>=50% AEC reduction at Week 16,780 mL
same,"Post-BD FEV1 change from baseline, Mean ± SD",>=50% AEC reduction at Week 16,220.0 ± 487.54 mL
same,"Post-BD FEV1 change from baseline, Median",>=50% AEC reduction at Week 16,-10.0 mL
same,"Post-BD FEV1 change from baseline, Min",>=50% AEC reduction at Week 16,-110 mL
same,"Post-BD FEV1 change from baseline, Q1",>=50% AEC reduction at Week 16,-110 mL
same,"Post-BD FEV1 change from baseline, Q3",>=50% AEC reduction at Week 16,780 mL
same,"Post bronchodilator Forced Expiratory Flow 25-75% (FEF25-75), % CFB (Percent change from baseline), Max",[2],81%
same,"Post bronchodilator Forced Expiratory Flow 25-75% (FEF25-75), % CFB (Percent change from baseline), Mean ± SD",[2],26.7 ± 49.08%
same,"Post bronchodilator Forced Expiratory Flow 25-75% (FEF25-75), % CFB (Percent change from baseline), Median",[2],12.5%
same,"Post bronchodilator Forced Expiratory Flow 25-75% (FEF25-75), % CFB (Percent change from baseline), Min",[2],−14%
same,"Post bronchodilator Forced Expiratory Flow 25-75% (FEF25-75), % CFB (Percent change from baseline), Q1",[2],−14%
same,"Post bronchodilator Forced Expiratory Flow 25-75% (FEF25-75), % CFB (Percent change from baseline), Q3",[2],81%
same,"Post bronchodilator Forced Expiratory Flow 25-75% (FEF25-75), CFB (Change from baseline), Max",[2],520 mL/s
same,"Post bronchodilator Forced Expiratory Flow 25-75% (FEF25-75), CFB (Change from baseline), Mean ± SD",[2],130.0 ± 350.86 mL/s
same,"Post bronchodilator Forced Expiratory Flow 25-75% (FEF25-75), CFB (Change from baseline), Median",[2],30.0 mL/s
same,"Post bronchodilator Forced Expiratory Flow 25-75% (FEF25-75), CFB (Change from baseline), Min",[2],-160 mL/s
same,"Post bronchodilator Forced Expiratory Flow 25-75% (FEF25-75), CFB (Change from baseline), Q1",[2],-160 mL/s
same,"Post bronchodilator Forced Expiratory Flow 25-75% (FEF25-75), CFB (Change from baseline), Q3",[2],520 mL/s
same,"Post bronchodilator Forced Expiratory Flow 25-75% (FEF25-75), Observed, Max",[2],1160 mL/s
same,"Post bronchodilator Forced Expiratory Flow 25-75% (FEF25-75), Observed, Mean ± SD",[2],810.0 ± 474.45 mL/s
same,"Post bronchodilator Forced Expiratory Flow 25-75% (FEF25-75), Observed, Median",[2],1000.0 mL/s
same,"Post bronchodilator Forced Expiratory Flow 25-75% (FEF25-75), Observed, Min",[2],270 mL/s
same,"Post bronchodilator Forced Expiratory Flow 25-75% (FEF25-75), Observed, Q1",[2],270 mL/s
same,"Post bronchodilator Forced Expiratory Flow 25-75% (FEF25-75), Observed, Q3",[2],1160 mL/s
same,"Post bronchodilator Forced Vital Capacity (FVC), % CFB (Percent change from baseline), Max",[2],36%
same,"Post bronchodilator Forced Vital Capacity (FVC), % CFB (Percent change from baseline), Mean ± SD",[2],9.2 ± 23.24%
same,"Post bronchodilator Forced Vital Capacity (FVC), % CFB (Percent change from baseline), Median",[2],−2.4%
same,"Post bronchodilator Forced Vital Capacity (FVC), % CFB (Percent change from baseline), Min",[2],−6%
same,"Post bronchodilator Forced Vital Capacity (FVC), % CFB (Percent change from baseline), Q1",[2],−6%
same,"Post bronchodilator Forced Vital Capacity (FVC), % CFB (Percent change from baseline), Q3",[2],36%
same,"Post bronchodilator Forced Vital Capacity (FVC), CFB (Change from baseline), Max",[2],900 mL
same,"Post bronchodilator Forced Vital Capacity (FVC), CFB (Change from baseline), Mean ± SD",[2],226.7 ± 585.26 mL
same,"Post bronchodilator Forced Vital Capacity (FVC), CFB (Change from baseline), Median",[2],-60.0 mL
same,"Post bronchodilator Forced Vital Capacity (FVC), CFB (Change from baseline), Min",[2],-160 mL
same,"Post bronchodilator Forced Vital Capacity (FVC), CFB (Change from baseline), Q1",[2],-160 mL
same,"Post bronchodilator Forced Vital Capacity (FVC), CFB (Change from baseline), Q3",[2],900 mL
same,"Post bronchodilator Forced Vital Capacity (FVC), Observed, Max",[2],3400 mL
same,"Post bronchodilator Forced Vital Capacity (FVC), Observed, Mean ± SD",[2],2796.7 ± 527.86 mL
same,"Post bronchodilator Forced Vital Capacity (FVC), Observed, Median",[2],2570.0 mL
same,"Post bronchodilator Forced Vital Capacity (FVC), Observed, Min",[2],2420 mL
same,"Post bronchodilator Forced Vital Capacity (FVC), Observed, Q1",[2],2420 mL
same,"Post bronchodilator Forced Vital Capacity (FVC), Observed, Q3",[2],3400 mL
same,"Post bronchodilator Peak Flow, % CFB (Percent change from baseline), Max",[2],103%
same,"Post bronchodilator Peak Flow, % CFB (Percent change from baseline), Mean ± SD",[2],40.2 ± 55.44%
same,"Post bronchodilator Peak Flow, % CFB (Percent change from baseline), Median",[2],21.5%
same,"Post bronchodilator Peak Flow, % CFB (Percent change from baseline), Min",[2],−3%
same,"Post bronchodilator Peak Flow, % CFB (Percent change from baseline), Q1",[2],−3%
same,"Post bronchodilator Peak Flow, % CFB (Percent change from baseline), Q3",[2],103%
same,"Post bronchodilator Peak Flow, CFB (Change from baseline), Max",[2],161 L/min
same,"Post bronchodilator Peak Flow, CFB (Change from baseline), Mean ± SD",[2],64.3 ± 86.56 L/min
same,"Post bronchodilator Peak Flow, CFB (Change from baseline), Median",[2],38.0 L/min
same,"Post bronchodilator Peak Flow, CFB (Change from baseline), Min",[2],-6 L/min
same,"Post bronchodilator Peak Flow, CFB (Change from baseline), Q1",[2],-6 L/min
same,"Post bronchodilator Peak Flow, CFB (Change from baseline), Q3",[2],161 L/min
same,"Post bronchodilator Peak Flow, Observed, Max",[2],318 L/min
same,"Post bronchodilator Peak Flow, Observed, Mean ± SD",[2],233.0 ± 77.58 L/min
same,"Post bronchodilator Peak Flow, Observed, Median",[2],215.0 L/min
same,"Post bronchodilator Peak Flow, Observed, Min",[2],166 L/min
same,"Post bronchodilator Peak Flow, Observed, Q1",[2],166 L/min
same,"Post bronchodilator Peak Flow, Observed, Q3",[2],318 L/min
